Laboratory results reported in patent publication US10010520B2, “Combined application of isothiocyanate compound and anti-cancer medicine” (JC (WUXI) COMPANY, INC., priority 2013, dated 2018).
pIC50: −log10 of the molar value. “And” between values parts separate entries of the source, which are not always exact repeats. Equal values may be shown once. Where a name gives a salt, the structure may show the parent alone. Read-outs that look alike come from different tables or passages of the source. Each block holds one compound with its values, some of them ahead of it.

Columns and labels:
U251 cells = assay: CellTiter-Glo cell viability, drugs alone or in combination, U251 cells
LNCaP cells = assay: CellTiter-Glo cell viability, drugs alone or in combination, LNCaP cells; assay type: cell-based, human
Method: Cell culture: Androgen-dependent human prostate cancer cells LNCaP, from Shanghai Medicilon Ltd., were placed in a 37° C., 5% CO2 cell incubator, and were cultured in RPMI1640 culture medium with 10% FBS. Androgen-independent human prostate cancer cells DU145, PC-3, from Shanghai Medicilon Ltd., were placed in a 37° C., 5% CO2 cell incubator, and were cultured in F12 culture medium with 10% FBS.
(§1) isothiocyanates or derivatives thereof and DNA-effecting or influencing anticancer drugs, kinase-inhibiting anticancer drugs or hormonal anticancer drugs for endocrine therapy were administered separately or in combination to cancer cells. Cells were seeded into 384-well plates, and cultured for 24 hours in a CO2 incubator. Drugs were dissolved in DMSO and diluted to 9 concentration-gradients in 96 well plates, and then added to corresponding cells in 384-well plates, in which the concentrations of DMSO in 384 well plates were less than 1%. Triplicate wells were set for each concentration. After administration, the cells were cultured in the CO2 incubator for another 72 hrs, and afterwards, cell viability was tested by using CellTiter-Glo® reagent and luminescence detector. And IC50 values of each administration group were calculated.
(§2) CI value was calculated by the following formula: CI=(Am)50/(As)50+(Bm)50/(Bs)50,
(§3) Triplicate wells were set for each co-administration cell well.
(§4) After administration, cells were cultured in the CO2 incubator for another 72 hrs, and afterwards, cell viability was tested by using CellTiter-Glo® reagent and luminescence detector. Curves were plotted according to concentrations or logarithm concentrations of drug A vs cell inhibition rate in the corresponding cell well, and IC50, i.e. (Am)50 was calculated.
(§5) 9 concentration gradients of drug A were set (A1, A2, A3, A4, A5, A6, A7, A8, A9), and administrated alone to the corresponding cells in the 384 well plate, and triplicate wells were set for each administration concentration. After administration, the cells were cultured in the CO2 incubator for another 72 hrs, and afterwards, cell viability was tested by using CellTiter-Glo® reagent and luminescence detector. Curves were plotted according to concentration or logarithm concentration of drug A vs the cell inhibition rate in the corresponding cell well, and IC50, i.e. (As)50 was calculated.
(§6) After administration, the cells were cultured in the CO2 incubator for another 72 hrs, and afterwards, cell viability was tested by using CellTiter-Glo® reagent and luminescence detector.

[1] = test system: pancreatic cancer cells PANC-1; assay: CellTiter-Glo cell viability, drugs alone or in combination, PANC-1 cells; assay type: cell-based, human
Method: as §1, §2, §3, §4, §5, §6

Saos-2 cells = assay: CellTiter-Glo cell viability, drugs alone or in combination, Saos-2 cells; assay type: cell-based, human; details: Homo sapiens, SAOS-2, 72 h
Method: as §1, §2, §3, §4, §5, §6

Jurkat E6-1 cells = assay: CellTiter-Glo cell viability, drugs alone or in combination, Jurkat E6-1 cells; assay type: cell-based, human; details: Homo sapiens
Method: as §1, §2, §3, §4, §5, §6

[2] = test system: Human breast cancer MDA-MB-231 cells; assay: CellTiter-Glo cell viability, drugs alone or in combination, MDA-MB-231 cells; details: Homo sapiens, MDA-MB-231, 72 h
OVCAR-3 cells = assay: CellTiter-Glo cell viability, drugs alone or in combination, OVCAR-3 cells
[3] = test system: human leukemia HL-60 cells; assay: CellTiter-Glo cell viability, drugs alone or in combination, HL-60 cells; assay type: cell-based
Method: as §1, §2, §3, §4, §5, §6

[4] = test system: human kidney cancer cells 786-O; assay: CellTiter-Glo cell viability, drugs alone or in combination, 786-O cells; details: 786-0, 72 h
HeLa cells = assay: CellTiter-Glo cell viability, drugs alone or in combination, HeLa cells; assay type: cell-based, human; details: 72 hrs, read-out: (Bs)50, IC50 of drug B when used alone
Method: as §1, §2, §3, §4, §5, §6

[5] = Homo sapiens, U-251, 72 h, read-out: (Bs)50, IC50 of drug B when used alone, U251 cells, 72 hrs
[6] = Homo sapiens, LNCaP, 72 h, LNCaP cells, 72 hrs, read-out: (As)50, IC50 of drug A when used alone
[7] = Homo sapiens, PANC-1 cells, 72 hrs, read-out: (As)50, IC50 of drug A when used alone
[8] = read-out: (As)50, IC50 of drug A when used alone
[9] = Homo sapiens, OVCAR-3, 72 h, read-out: (As)50, IC50 of drug A when used alone
[10] = 72 hrs, read-out: (Bs)50, IC50 of drug B when used alone
[11] = PANC-1 cells, 72 hrs, read-out: (As)50, IC50 of drug A when used alone
[12] = Homo sapiens, HL-60, 72 h, read-out: (Bs)50, IC50 of drug B when used alone
[13] = read-out: (Bs)50, IC50 of drug B when used alone, 786-O cells, 72 hrs
[14] = LNCaP cells, 72 hrs, read-out: (As)50, IC50 of drug A when used alone

- pIC50 (U251 cells; [5]): 4.63
Compound: CO[C@H]1C[C@@H]2CC[C@@H](C)[C@@](O)(O2)C(=O)C(=O)N2CCCC[C@H]2C(=O)O[C@H]([C@H](C)C[C@@H]2CC[C@@H](OCCO)[C@H](OC)C2)CC(=O)[C@H](C)/C=C(\C)[C@@H](O)[C@@H](OC)C(=O)[C@H](C)C[C@H](C)/C=C/C=C/C=C/1C [everolimus]

Compound: S=C=NC(c1ccccc1)(c1ccccc1)c1ccccc1 [trityl isothiocyanate]
- pIC50 (LNCaP cells; [6]): 3.62
- pIC50 [1, 7]: < 4.30

Compound: S=C=NC1CCCCC1 [cyclohexyl isothiocyanate]
- pIC50 (Saos-2 cells; [8]): 4.18
- pIC50 (Jurkat E6-1 cells; Jurkat E6-1 cells, 72 hrs, read-out: (As)50, IC50 of drug A when used alone): 4.38
- pIC50 (U251 cells; Homo sapiens, U-251, 72 h, read-out: (As)50, IC50 of drug A when used alone): 4.15
- pIC50 [2, 8]: 4.43
- pIC50 (LNCaP cells; [6]): 4.27
- pIC50 (OVCAR-3 cells; [9]): 4.44
- pIC50 ([3]; Homo sapiens, HL-60, 72 h, read-out: (As)50, IC50 of drug A when used alone): 4.28
- pIC50 [4, 8]: 3.97
- pIC50 [1, 7]: 3.71

Compound: CC(C)C[C@H](NC(=O)[C@H](Cc1ccccc1)NC(=O)c1cnccn1)B(O)O [bortezomib, reference compound]
- pIC50 (Saos-2 cells; Saos-2 cells, 72 hrs, read-out: (Bs)50, IC50 of drug B when used alone): 6.09

- pIC50 [3, 10]: 7.90
Compound: CC[C@]1(O)C[C@H]2CN(CCc3c([nH]c4ccccc34)[C@@](C(=O)OC)(c3cc4c(cc3OC)N(C=O)[C@H]3[C@@](O)(C(=O)OC)[C@H](OC(C)=O)[C@]5(CC)C=CCN6CC[C@]43[C@@H]65)C2)C1 [vincristine sulfate]

- pIC50 (LNCaP cells; LNCaP cells, 72 hrs, read-out: (Bs)50, IC50 of drug B when used alone): 3.49
Compound: CCNC(=O)[C@@H]1CCCN1C(=O)[C@H](CCCNC(=N)N)NC(=O)[C@H](CC(C)C)NC(=O)[C@@H](CC(C)C)NC(=O)[C@H](Cc1ccc(O)cc1)NC(=O)[C@H](CO)NC(=O)[C@H](Cc1c[nH]c2ccccc12)NC(=O)[C@H](Cc1c[nH]cn1)NC(=O)[C@@H]1CCC(=O)N1 [leuprorelin, reference compound]

Compound: Cn1c(CCCC(=O)O)nc2cc(N(CCCl)CCCl)ccc21 [bendamustine, Bendamustine, reference compound]
- pIC50 (Jurkat E6-1 cells; Jurkat E6.1, 72 h, read-out: (Bs)50, IC50 of drug B when used alone): < 4.00

- pIC50 (Jurkat E6-1 cells; Jurkat E6.1, 72 h, Jurkat E6-1 cells, 72 hrs, read-out: (Bs)50, IC50 of drug B when used alone): 8.77
Compound: C#CCC(Cc1cnc2nc(N)nc(N)c2n1)c1ccc(C(=O)N[C@@H](CCC(=O)O)C(=O)O)cc1 (stereo partly shown) [Pralatrexate, reference compound]

Compound: Bleomycin [reference compound]
- pIC50 (HeLa cells): 4.61

Compound: CC(N=C=S)c1ccccc1 [L-ethyl phenyl isothiocyanate]
- pIC50 (OVCAR-3 cells; read-out: (As)50, IC50 of drug A when used alone, OVCAR-3 cells, 72 hrs): 4.36
- pIC50 [1, 11]: 4.62

Compound: S=C=NCCCCCCc1ccccc1 [6-Phenhexyl isothiocyanate, 6-phenyl-hexyl isothiocyanate]
- pIC50 (LNCaP cells; [6]): 4.73
- pIC50 [1, 7]: 4.51

Compound: N.N.O=C([O-])C1(C(=O)[O-])CCC1.[Pt+2] [carboplatin, Carboplatin]
- pIC50 (OVCAR-3 cells; read-out: (Bs)50, IC50 of drug B when used alone, OVCAR-3 cells, 72 hrs): 4.23 and 4.41

- pIC50 ([1]; Homo sapiens, PANC-1, 72 h, PANC-1 cells, 72 hrs, read-out: (Bs)50, IC50 of drug B when used alone): < 4.00
Compound: C#Cc1cccc(Nc2ncnc3cc(OCCOC)c(OCCOC)cc23)c1 [erlotinib, reference compound]

Compound: arsenic trioxide
- pIC50 [3, 10]: 5.56

- pIC50 [3, 12]: 5.41
Compound: Cc1cn(-c2cc(NC(=O)c3ccc(C)c(Nc4nccc(-c5cccnc5)n4)c3)cc(C(F)(F)F)c2)cn1 [nilotinib]

Compound: S=C=NCCCCc1ccccc1 [4-Phenbutyl isothiocyanate, 4-phenylbutyl isothiocyanate]
- pIC50 (LNCaP cells; [6]): 4.76
- pIC50 [1, 7]: 4.57

Compound: O=NN(CCCl)C(=O)NC1CCCCC1 [Lomustine]
- pIC50 (U251 cells; [5]): 4.18
- pIC50 (U251 cells; read-out: (Bs)50, IC50 of drug B when used alone, U251 cells, 72 hrs): 3.94

Compound: O=P1(N(CCCl)CCCl)NCCCO1 (stereo not shown) [cyclophosphamide, Cyclophosphamide]
- pIC50 (OVCAR-3 cells; Homo sapiens, OVCAR-3, 72 h, read-out: (Bs)50, IC50 of drug B when used alone): < 4.00

Compound: C/C=C1\NC(=O)[C@H]2CSSCC/C=C/[C@H](CC(=O)N[C@H](C(C)C)C(=O)N2)OC(=O)[C@H](C(C)C)NC1=O [Romidepsin, romidepsin, reference compound]
- pIC50 (Jurkat E6-1 cells; Jurkat E6-1 cells, 72 hrs, read-out: (Bs)50, IC50 of drug B when used alone): 8.70

- pIC50 [4, 13]: 3.70
Compound: Cc1ccc(Nc2nccc(N(C)c3ccc4c(C)n(C)nc4c3)n2)cc1S(N)(=O)=O [Pazopanib, pazopanib, reference compound]

Compound: COc1cccc2c1C(=O)c1c(O)c3c(c(O)c1C2=O)C[C@@](O)(C(C)=O)C[C@@H]3O[C@H]1C[C@H](N)[C@H](O)[C@H](C)O1 [daunorubicin, Daunorubicin]
- pIC50 [3, 10]: 6.63

Compound: Nc1nc(F)nc2c1ncn2[C@@H]1O[C@H](CO)[C@@H](O)[C@@H]1O [fludarabine, Fludarabine]
- pIC50 [3, 12]: 5.80

- pIC50 ([2]; read-out: (Bs)50, IC50 of drug B when used alone, MDA-MB-231 cells, 72 hrs): 7.70
Compound: CC(=O)O[C@H]1C(=O)[C@@]2(C)[C@H]([C@H](OC(=O)c3ccccc3)[C@]3(O)C[C@H](OC(=O)[C@H](O)[C@@H](NC(=O)c4ccccc4)c4ccccc4)C(C)=C1C3(C)C)[C@]1(OC(C)=O)CO[C@@H]1C[C@@H]2O [Paclitaxel, paclitaxel, reference compound]

Compound: S=C=NCc1ccc(Cl)cc1 [4-chloro-benzyl isothiocyanate]
- pIC50 (LNCaP cells; Homo sapiens, LNCaP, 72 h, read-out: (As)50, IC50 of drug A when used alone): 4.76
- pIC50 (OVCAR-3 cells; [9]): 4.74
- pIC50 ([1]; Homo sapiens, PANC-1, 72 h, read-out: (As)50, IC50 of drug A when used alone): 4.47

Compound: S=C=NCCCc1ccccc1 [3-Phenylpropyl isothiocyanate, 3-phenyl propyl isothiocyanate]
- pIC50 (LNCaP cells; [6]): 4.61

- pIC50 [4, 13]: 5.16
Compound: CNC(=O)c1cc(Oc2ccc(NC(=O)Nc3ccc(Cl)c(C(F)(F)F)c3)cc2)ccn1 [Sorafenib, sorafenib, reference compound]

Compound: CC(=O)N[C@@H](CSC(=S)NCCc1ccccc1)C(=O)O [phenethyl isothiocyanate-N-acetylcysteine adduct]
- pIC50 (LNCaP cells; [14]): 4.78
- pIC50 [1, 11]: 4.54

- pIC50 (OVCAR-3 cells; Homo sapiens, OVCAR-3, 72 h, read-out: (Bs)50, IC50 of drug B when used alone, OVCAR-3 cells, 72 hrs): 7.11
Compound: CC[C@@]1(O)C(=O)OCc2c1cc1n(c2=O)Cc2cc3c(CN(C)C)c(O)ccc3nc2-1 [topotecan, Topotecan]

Compound: S=C=NCCCc1ccccc1 [Phenylpropyl isothiocyanate, phenylpropyl isothiocyanate]
- pIC50 (LNCaP cells; [14]): 4.64
- pIC50 [1, 7]: 4.45

- pIC50 (LNCaP cells; [6]): 4.81
- pIC50 ([1]; Homo sapiens, PANC-1, 72 h, PANC-1 cells, 72 hrs, read-out: (As)50, IC50 of drug A when used alone): 4.84
Compound: C[S+]([O-])CCCCN=C=S (stereo not shown) [sulforaphane, 1-isothiocyanate-4-methanesulfonyl butane]

Compound: S=C=Nc1ccccc1 [Phenyl isothiocyanate, phenyl isothiocyanate]
- pIC50 (LNCaP cells; [6]): 4.36
- pIC50 [1, 7]: 4.11

Compound: C=CCN=C=S [allyl isothiocyanate]
- pIC50 [1, 7]: 3.94

Compound: COc1ccc(CN=C=S)cc1 [4-methoxy-benzyl isothiocyanate]
- pIC50 [1, 7]: 4.95
